Assay [1] has as its system Mycobacterium tuberculosis. The assay is described as follows: Antibacterial activity against multi drug-resistant Mycobacterium tuberculosis 365. In kind it is functional.
The test system of assay [2] is Mycobacterium tuberculosis. The assay is described as follows: Antibacterial activity against extensively drug-resistant Mycobacterium tuberculosis 5. In kind it is functional.

We go through two molecules from ChEMBL document CHEMBL5233242, “Dihydrofolate reductase inhibitors for use as antimicrobial agents” (Eur J Med Chem, 2020).

≈ marks a conversion by molar mass, not a printed value.

Broadly, the MIC is the lowest concentration that inhibits growth of the organism. Read a low MIC as greater potency. Take `CCc1nc(N)nc(N)c1C#C[C@H](C)c1cc(OC)cc(-c2ccc(C(=O)O)cc2)c1`: the MIC was below 0.072 µM in assay [1] and 0.6 µM (≈ 0.25 µg/mL) in assay [2].
Regarding `CCc1nc(N)nc(N)c1C#CCc1cc(OC)cc(-c2ccc(C(=O)O)cc2)c1`, the MIC came to 0.311 µM (≈ 0.125 µg/mL) in assay [1] and 4.97 µM (≈ 2 µg/mL) in assay [2].
